Test: mn = molality of the nth substance listed, in mol/kg
Conditions: 101 kPa, Liquid

O [water] + O=C(O)CCCCC(=O)O
m2 = 0
Conditions | viscosity [mPa·s]
293.15 K | 1.002
298.15 K | 0.8904
303.15 K | 0.7975
308.15 K | 0.7194
313.15 K | 0.653

O=C(O)CCCCC(=O)O [1,6-hexanedioic acid] + O
Conditions | mass density [kg/m3] | viscosity [mPa·s]
293.15 K, m1 = 0.00708 | 998.48 | 1.006
293.15 K, m1 = 0.01399 | 998.72 | 1.008
293.15 K, m1 = 0.02122 | 999.01 | 1.01
293.15 K, m1 = 0.02857 | 999.2 | 1.014
293.15 K, m1 = 0.05669 | 1000.16 | 1.023
293.15 K, m1 = 0.08401 | 1000.95 | 1.035
293.15 K, m1 = 0.1125 | 1001.81 | 1.047
293.15 K, m1 = 0.143 | 1002.78 | 1.06
298.15 K, m1 = 0.01287 | 997.49 | –
298.15 K, m1 = 0.0154 | 997.52 | 0.8959
298.15 K, m1 = 0.0257 | 997.83 | 0.8985
298.15 K, m1 = 0.02702 | 997.91 | –
298.15 K, m1 = 0.03133 | 998.11 | 0.9017
298.15 K, m1 = 0.03789 | 998.27 | 0.9028
298.15 K, m1 = 0.04282 | 998.42 | –
298.15 K, m1 = 0.0455 | – | 0.905
298.15 K, m1 = 0.05256 | – | 0.9074
298.15 K, m1 = 0.05544 | 998.81 | –
298.15 K, m1 = 0.05776 | – | 0.9102
298.15 K, m1 = 0.06453 | – | 0.9122
298.15 K, m1 = 0.06825 | 999.2 | –
298.15 K, m1 = 0.06989 | 999.21 | 0.9136
298.15 K, m1 = 0.08417 | 999.71 | –
298.15 K, m1 = 0.08956 | – | 0.9197
298.15 K, m1 = 0.09767 | 1000.15 | –
298.15 K, m1 = 0.1088 | 1000.49 | –
298.15 K, m1 = 0.1136 | 1000.66 | 0.9285
298.15 K, m1 = 0.1266 | 1001.01 | –
298.15 K, m1 = 0.1377 | 1001.33 | –
303.15 K, m1 = 0.01287 | 996.07 | –
303.15 K, m1 = 0.0154 | 996.08 | 0.8022
303.15 K, m1 = 0.0257 | 996.56 | 0.806
303.15 K, m1 = 0.02702 | 996.51 | –
303.15 K, m1 = 0.03133 | 996.64 | 0.8073
303.15 K, m1 = 0.03789 | 996.83 | 0.8085
303.15 K, m1 = 0.04282 | 996.99 | –
303.15 K, m1 = 0.0455 | – | 0.8116
303.15 K, m1 = 0.05256 | – | 0.8134
303.15 K, m1 = 0.05544 | 997.38 | –
303.15 K, m1 = 0.05776 | – | 0.8148
303.15 K, m1 = 0.06453 | – | 0.8157
303.15 K, m1 = 0.06825 | 997.72 | –
303.15 K, m1 = 0.06989 | 997.73 | 0.8172
303.15 K, m1 = 0.08417 | 998.28 | –
303.15 K, m1 = 0.08956 | – | 0.8233
303.15 K, m1 = 0.09767 | 998.74 | –
303.15 K, m1 = 0.1088 | 999.01 | –
303.15 K, m1 = 0.1136 | 999.1 | 0.8297
303.15 K, m1 = 0.1266 | 999.56 | –
303.15 K, m1 = 0.1377 | 999.93 | –
308.15 K, m1 = 0.01287 | 994.41 | –
308.15 K, m1 = 0.0154 | 994.45 | 0.7229
308.15 K, m1 = 0.0257 | 994.79 | 0.7255
308.15 K, m1 = 0.02702 | 994.89 | –
308.15 K, m1 = 0.03133 | 994.96 | 0.7275
308.15 K, m1 = 0.03789 | 995.17 | 0.7285
308.15 K, m1 = 0.04282 | 995.34 | –
308.15 K, m1 = 0.0455 | – | 0.7309
308.15 K, m1 = 0.05256 | – | 0.7323
308.15 K, m1 = 0.05544 | 995.71 | –
308.15 K, m1 = 0.05776 | – | 0.7334
308.15 K, m1 = 0.06453 | – | 0.7353
308.15 K, m1 = 0.06825 | 996.07 | –
308.15 K, m1 = 0.06989 | 996.09 | 0.7362
308.15 K, m1 = 0.08417 | 996.55 | –
308.15 K, m1 = 0.08956 | – | 0.7406
308.15 K, m1 = 0.09767 | 996.95 | –
308.15 K, m1 = 0.1088 | 997.25 | –
308.15 K, m1 = 0.1136 | 997.47 | 0.7457
308.15 K, m1 = 0.1266 | 997.79 | –
308.15 K, m1 = 0.1377 | 998.16 | –
313.15 K, m1 = 0.01287 | 992.54 | –
313.15 K, m1 = 0.0154 | 992.58 | 0.6559
313.15 K, m1 = 0.0257 | 992.89 | 0.6585
313.15 K, m1 = 0.02702 | 993.01 | –
313.15 K, m1 = 0.03133 | 993.19 | 0.66
313.15 K, m1 = 0.03789 | 993.29 | 0.6612
313.15 K, m1 = 0.04282 | 993.45 | –
313.15 K, m1 = 0.0455 | – | 0.6625
313.15 K, m1 = 0.05256 | – | 0.6639
313.15 K, m1 = 0.05544 | 993.89 | –
313.15 K, m1 = 0.05776 | – | 0.6643
313.15 K, m1 = 0.06453 | – | 0.6663
313.15 K, m1 = 0.06825 | 994.21 | –
313.15 K, m1 = 0.06989 | 994.21 | 0.6674
313.15 K, m1 = 0.08417 | 994.66 | –
313.15 K, m1 = 0.08956 | – | 0.6708
313.15 K, m1 = 0.09767 | 995.03 | –
313.15 K, m1 = 0.1088 | 995.33 | –
313.15 K, m1 = 0.1136 | 995.47 | 0.6754
313.15 K, m1 = 0.1266 | 995.88 | –
313.15 K, m1 = 0.1377 | 996.19 | –

From the NIST ThermoML archive (doi:10.1021/je060189f)
